≈ marks a conversion by molar mass, not a printed value. Like-named read-outs stand apart in the source and are kept apart here. Where a SMILES comes first, the peptide text is derived from it. [ ]: non-standard residue; d: D form. The star is where a group is joined. Guan = guanidino group added at N-terminus (guanidation), N=C(N)*; hArg = N=C(N)NCCCC[C@H](N)C(=O)O; Cha = N[C@@H](CC1CCCCC1)C(=O)O; NMeL = CN[C@@H](CC(C)C)C(=O)O; Agp = N=C(N)NC[C@H](N)C(=O)O; X1 = CN(C)C(=NCC(=O)*)N(C)C; Orn = NCCC[C@H](N)C(=O)O; OPr = CCCO*
What was measured:
[1] = test system: R. radiobatter ATCC 15955; experiment: Growth inhibition assay (MIC); type: cell-based, Rhizobium radiobacter
Experimental: (§1) The minimal inhibition concentrations (MIC) of the apidaecin-derived peptides and peptide-derivatives were determined by a growth inhibition assay using a serial peptide dilution in sterilized round-bottom 96-well plates (polystyrene, U-bottom, Greiner Bio-One GmbH) with a final volume of 100 μL per well. The bacteria, e.g., E. coli BL21 A1, were grown in nutrient broth (NB, Carl Roth GmbH+Co. KG, Karlsruhe, Germany) at 37° C. over night. To each well of the 96-well plate, 50 μL of the overnight culture adjusted to 5×10^6 CFU/mL in 1% TSB were added. Lyophilized peptides and peptidomimetics were dissolved in 1% TSB (tryptic soy broth) or water to give a final concentration of 250 μg/mL. Fifty μL of the peptide or peptidomimetics solution were added to the first well of a row on the plate and mixed. Fifty μL of the first well containing the peptide solution were transferred to the second well, mixed and again 50 μL transferred to the next well and so on. Thereby, a two-fold dilution series was obtained starting at 250 μg/mL in the first well down to 120 ng/mL in the 12th well of a row giving a final peptide or peptidomimetics concentration from 125 μg/mL (well 1) to 60 ng/mL (well 12). Plates were incubated at 37° C. for 20 hrs. The absorbance was measured at 595 nm using a TECAN micro plate spectrophotometer (Tecan, Germany). All peptides and peptidomimetics were measured in triplicates. Sterilized water was used as a negative control.
(§2) The following multidrug resistant bacteria strains were tested: • Eschericha coli 45849 and D31, • Klebsiella pneumoniae 123132 and K6, • Salmonella typhi S5 and Salmonella enterica subsp. enterica serovar Typhimurium (ATCC 700408), • Rhizobium radiobacter (ATCC 15955 deposited as Agrobacterium tumefaciens).

S. typhi S5 = type: cell-based, Salmonella typhi; conditions: S5, 20 h
Experimental: as §1, §2

E. coli D31 = type: cell-based, Escherichia coli; conditions: D31, 20 h
Experimental: as §1, §2

K. Pneumonia 123132 = experiment: Growth inhibition assay (MIC); type: cell-based, Klebsiella pneumoniae
Experimental: as §1, §2

[2] = test system: K. Pneumonia K6, ATCC 700603; experiment: Growth inhibition assay (MIC); type: cell-based, Klebsiella pneumoniae; conditions: multidrug resistant strain; 1% TSB, 37° C., 20 hrs
Experimental: as §1, §2

E. coli 45849 = experiment: Growth inhibition assay (MIC); type: cell-based, Escherichia coli
Experimental: as §1, §2

[3] = test system: S. enterica subsp. Enterica serovar. typhi G10215 ATCC 700408; type: cell-based, Salmonella enterica; conditions: ATCC 700408, 20 h
Experimental: as §1, §2

M. luteus ATCC 10240 = type: cell-based, Micrococcus luteus
Method in brief: (§3)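 Bacteria grown overnight in NB at 37° C. were adjusted to 5×10^6 CFU/mL in 1% TSB and mixed 1:1 with a two-fold peptide series (final 125 μg/mL–60 ng/mL). After 20 hrs at 37° C., A595 was read; triplicates.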

E. coli 1103 = type: cell-based, Escherichia coli
Experimental: as §1
(§4) The bacteria strains were tested: • Eschericha coli 1103, 10233, BL 21 AI, DC 2, • Klebsiella pneumoniae 681, • Micrococcus luteus ATCC 10240, • Mycobacterium vaccae • Bactillus subtillis 347.

K. pneumonia 681 = type: cell-based, Klebsiella pneumoniae
Experimental: as §1, §4

E. coli BL 21 AI = experiment: Growth inhibition assay (MIC); type: cell-based, Escherichia coli; conditions: 1% TSB, 37° C., 20 hrs
Method in brief: as §3

B. subtilis 347 = type: cell-based, Bactillus subtillis
Experimental: as §1, §4

[4] = multidrug resistant strain, 1% TSB, 37° C., 20 hrs

Row | Molecule | MIC R. radiobatter ATCC 15955 ([1]; ATCC 15955, 20 h) [µg/mL] | MIC S. typhi S5 (S. typhi S5) [µg/mL] | MIC E. coli D31 (E. coli D31) [µg/mL] | MIC K. Pneumonia 123132 (K. Pneumonia 123132; 20 h) [µg/mL] | MIC K. Pneumonia K6, ATCC 700603 [2] [µg/mL] | MIC E. coli 45849 (E. coli 45849; 45849, 20 h) [µg/mL] | MIC S. enterica subsp. Enterica serovar. typhi G10215 ATCC 700408 [3] [µg/mL] | MIC E. coli BL 21 AI (E. coli BL 21 AI) [µg/mL] | other results
1 | CC[C@H](C)[C@H](NC(=O)[C@H](Cc1ccc(O)cc1)NC(=O)[C@@H](NC(=O)[C@@H]1CCCN1C(=O)[C@H](CCCNC(=N)N)NC(=O)[C@H](CC(N)=O)NC(=O)[C@H](CC(N)=O)NC(=O)[C@H](CCCN)NC(C)=O)C(C)C)C(=O)N1CCC[C@H]1C(=O)N[C@@H](CCCN)C(=O)N1CCC[C@H]1C(=O)N[C@@H](CCCNC(=N)N)C(=O)N1CCC[C@H]1C(=O)N1CCC[C@H]1C(=O)N[C@@H](Cc1c[nH]cn1)C(=O)N1CCC[C@H]1C(=O)N[C@@H](CCCNC(=N)N)C(=O)N[C@@H](CC(C)C)C(=O)OC [compound 49] (Ac-[Orn]NNRPVYIP[Orn]PRPPHPRL-OMe) | 1.3 (≈ 0.589 µM) | 4 (≈ 1.81 µM) | 32 (≈ 14.5 µM) | 64 (≈ 29 µM) | 128 (≈ 58 µM) | 2 (≈ 0.906 µM) | 8 (≈ 3.62 µM) | – | –
2 | CC[C@H](C)[C@H](NC(=O)[C@H](Cc1ccc(O)cc1)NC(=O)[C@@H](NC(=O)[C@@H]1CCCN1C(=O)[C@H](CCCNC(=N)N)NC(=O)[C@H](CC(N)=O)NC(=O)[C@H](CC(N)=O)NC(=O)CN=C(N(C)C)N(C)C)C(C)C)C(=O)N1CCC[C@H]1C(=O)N[C@@H](CCC(N)=O)C(=O)N1CCC[C@H]1C(=O)N[C@@H](CCCNC(=N)N)C(=O)N1CCC[C@H]1C(=O)N1CCC[C@H]1C(=O)N[C@@H](Cc1c[nH]cn1)C(=O)N1CCC[C@H]1C(=O)N[C@@H](CCCCNC(=N)N)C(=O)N[C@@H](CC(C)C)C(N)=O [compound 133] (X1-NNRPVYIPQPRPPHP[hArg]L-NH2; N-terminus and C-terminus assumed) | – | 16 (≈ 7.21 µM) | 16 (≈ 7.21 µM) | – | – | – | 2 (≈ 0.901 µM) | – | MIC M. luteus ATCC 10240 (M. luteus ATCC 10240; ATCC 10240, 20 h): 32 µg/mL (≈ 14.4 µM); MIC E. coli 1103 (E. coli 1103; 1103, 20 h): 16 µg/mL (≈ 7.21 µM); MIC K. pneumonia 681 (K. pneumonia 681; 20 h): 8 µg/mL (≈ 3.6 µM)
3 | CC[C@H](C)[C@H](NC(=O)[C@H](Cc1ccc(O)cc1)NC(=O)[C@@H](NC(=O)[C@@H]1CCCN1C(=O)[C@H](CCCNC(=N)N)NC(=O)[C@H](CC(N)=O)NC(=O)[C@H](CC(N)=O)NC(=O)[C@H](CCCN)NC(C)=O)C(C)C)C(=O)N1CCC[C@H]1C(=O)N[C@@H](CCCN)C(=O)N1CCC[C@H]1C(=O)N[C@@H](CCCNC(=N)N)C(=O)N1CCC[C@H]1C(=O)N1CCC[C@H]1C(=O)N[C@@H](Cc1c[nH]cn1)C(=O)N1CCC[C@H]1C(=O)N[C@@H](CCCNC(=N)N)C(=O)N[C@@H](CC1CCCCC1)C(N)=O [compound 46] (Ac-[Orn]NNRPVYIP[Orn]PRPPHPR[Cha]-NH2) | 10.5 (≈ 4.7 µM) | 32 (≈ 14.3 µM) | 16 (≈ 7.17 µM) | 32 to 64 | 32 to 64 | 32 (≈ 14.3 µM) | 8 (≈ 3.58 µM) | – | –
4 | 146 (Guan-[Orn]NNRPVYIPRPRPPHP[Agp]L-NH2) [compound 146] | – | – | – | – | – | – | – | 32 | MIC M. luteus ATCC 10240 (M. luteus ATCC 10240; 1% TSB, 37° C., 20 hrs): 4 µg/mL; MIC E. coli 1103 (E. coli 1103; 1% TSB, 37° C., 20 hrs): 64 µg/mL; MIC K. pneumonia 681 (K. pneumonia 681; 1% TSB, 37° C., 20 hrs): 32 µg/mL; MIC B. subtilis 347 (B. subtilis 347; 1% TSB, 37° C., 20 hrs): 125 µg/mL
5 | CC[C@H](C)[C@H](NC(=O)[C@H](Cc1ccc(O)cc1)NC(=O)[C@@H](NC(=O)[C@@H]1CCCN1C(=O)[C@H](CCCNC(=N)N)NC(=O)[C@H](CC(N)=O)NC(=O)[C@H](CC(N)=O)NC(=O)[C@H](CCCN)NC(C)=O)C(C)C)C(=O)N1CCC[C@H]1C(=O)N[C@@H](CCCNC(=N)N)C(=O)N1CCC[C@H]1C(=O)N[C@@H](CCCNC(=N)N)C(=O)N1CCC[C@H]1C(=O)N1CCC[C@H]1C(=O)N[C@@H](Cc1c[nH]cn1)C(=O)N1CCC[C@H]1C(=O)N[C@@H](CCCNC(=N)N)C(=O)N(C)[C@@H](CC(C)C)C(N)=O [compound 36] (Ac-[Orn]NNRPVYIPRPRPPHPR[NMeL]-NH2) | – | 16 to 32 | 8 (≈ 3.56 µM) | – | 64 to 128 | – | 4 to 8 | – | MIC R. radiobatter ATCC 15955 [1, 4]: 1.3 µg/mL (≈ 0.578 µM); MIC K. Pneumonia 123132 (K. Pneumonia 123132; [4]): 32 µg/mL (≈ 14.2 µM); MIC E. coli 45849 (E. coli 45849; [4]): 4 µg/mL (≈ 1.78 µM)
6 | CC[C@H](C)[C@H](NC(=O)[C@H](Cc1ccc(O)cc1)NC(=O)[C@@H](NC(=O)[C@@H]1CCCN1C(=O)[C@H](CCCNC(=N)N)NC(=O)[C@H](CC(N)=O)NC(=O)[C@H](CC(N)=O)NC(=O)[C@@H](N)CCCN)C(C)C)C(=O)N1CCC[C@H]1C(=O)N[C@@H](CCCNC(=N)N)C(=O)N1CCC[C@H]1C(=O)N[C@@H](CCCNC(=N)N)C(=O)N1CCC[C@H]1C(=O)N1CCC[C@H]1C(=O)N[C@@H](Cc1c[nH]cn1)C(=O)N1CCC[C@H]1C(=O)N[C@@H](CCCNC(=N)N)C(=O)N(C)[C@@H](CC(C)C)C(N)=O [compound 47] (H-[Orn]NNRPVYIPRPRPPHPR[NMeL]-NH2) | – | 32 (≈ 14.5 µM) | 8 (≈ 3.63 µM) | – | 32 to 64 | – | 8 (≈ 3.63 µM) | – | MIC R. radiobatter ATCC 15955 [1, 4]: 1.3 µg/mL (≈ 0.589 µM); MIC K. Pneumonia 123132 (K. Pneumonia 123132; [4]): 32 µg/mL (≈ 14.5 µM); MIC E. coli 45849 (E. coli 45849; [4]): 4 µg/mL (≈ 1.81 µM)
7 | CC[C@H](C)[C@H](NC(=O)[C@H](Cc1ccc(O)cc1)NC(=O)[C@@H](NC(=O)[C@@H]1CCCN1C(=O)[C@H](CCCNC(=N)N)NC(=O)[C@H](CC(N)=O)NC(=O)[C@H](CC(N)=O)NC(=O)[C@@H](N)CCCN)C(C)C)C(=O)N1CCC[C@H]1C(=O)N[C@@H](CCCN)C(=O)N1CCC[C@H]1C(=O)N[C@@H](CCCNC(=N)N)C(=O)N1CCC[C@H]1C(=O)N1CCC[C@H]1C(=O)N[C@@H](Cc1c[nH]cn1)C(=O)N1CCC[C@H]1C(=O)N[C@@H](CCCNC(=N)N)C(=O)N[C@@H](CC1CCCCC1)C(N)=O [compound 35] (H-[Orn]NNRPVYIP[Orn]PRPPHPR[Cha]-NH2) | 2.6 (≈ 1.19 µM) | 16 (≈ 7.3 µM) | 8 (≈ 3.65 µM) | 32 (≈ 14.6 µM) | 16 (≈ 7.3 µM) | 16 (≈ 7.3 µM) | 4 to 8 | – | –
8 | 147 (Guan-[Orn]NNRPVYIPRPRPPHPRL-OPr) [compound 147] | – | – | – | – | – | – | – | 4 | MIC M. luteus ATCC 10240 (M. luteus ATCC 10240; 1% TSB, 37° C., 20 hrs): 16 µg/mL; MIC E. coli 1103 (E. coli 1103; 1% TSB, 37° C., 20 hrs): 16 µg/mL; MIC K. pneumonia 681 (K. pneumonia 681; 1% TSB, 37° C., 20 hrs): 8 µg/mL; MIC B. subtilis 347 (B. subtilis 347; 1% TSB, 37° C., 20 hrs): 64 µg/mL
9 | CC[C@H](C)[C@H](NC(=O)[C@H](Cc1ccc(O)cc1)NC(=O)[C@@H](NC(=O)[C@@H]1CCCN1C(=O)[C@H](CCCNC(=N)N)NC(=O)[C@H](CC(N)=O)NC(=O)[C@H](CC(N)=O)NC(=O)CNC(C)=O)C(C)C)C(=O)N1CCC[C@H]1C(=O)N[C@@H](CCC(N)=O)C(=O)N1CCC[C@H]1C(=O)N[C@@H](CCCNC(=N)N)C(=O)N1CCC[C@H]1C(=O)N1CCC[C@H]1C(=O)N[C@@H](Cc1c[nH]cn1)C(=O)N1CCC[C@H]1C(=O)N[C@@H](CCCCNC(=N)N)C(=O)N[C@@H](CC(C)C)C(N)=O [compound 132] (Ac-GNNRPVYIPQPRPPHP[hArg]L-NH2) | – | – | – | – | – | – | – | 32 (≈ 14.8 µM) | MIC M. luteus ATCC 10240 (M. luteus ATCC 10240; ATCC 10240, 20 h): 32 µg/mL (≈ 14.8 µM); MIC E. coli 1103 (E. coli 1103; 1103, 20 h): 64 µg/mL (≈ 29.6 µM); MIC K. pneumonia 681 (K. pneumonia 681; 20 h): 32 µg/mL (≈ 14.8 µM); MIC B. subtilis 347 (B. subtilis 347; 347, 20 h): 128 µg/mL (≈ 59.2 µM)

Source: patent US20150315241A1, “Antibiotic Peptides” (priority 2007, published 2015)
